Like-named read-outs stand apart in the source and are kept apart here.
Columns and labels:
[1] = test system: MiaPaca human pancreatic carcinoma cells; test: Alamar Blue cell proliferation assay, MiaPaCa; assay type: cell-based; details: MIA PaCa-2
Procedure: (§1) A representative cell-proliferation assay protocol using Alamar Blue dye (stored at 4° C., use 20 ul per well) is described hereafter.
(§2) a. Split and trypsinize cells.
(§3) b. Count cells using hemocytometer.
(§4) c. Plate 4,000-5,000 cells per well in 100 μl of medium and seed into a 96-well plate according to the following plate layout. Add cell culture medium only to wells B10 to B12. Wells B1 to B9 have cells but no compound added.
(§5) d. Add 100 μl of 2× drug dilution to each well in a concentration shown in the plate layout above. At the same time, add 100 μl of media into the control wells (wells B10 to B12). Total volume is 200 μl/well.
(§6) e. Incubate four (4) days at 37° C., 5% CO2 in a humidified incubator.
(§7) f. Add 20 μl Alamar Blue reagent to each well.
(§8) g. Incubate for four (4) hours at 37° C., 5% CO2 in a humidified incubator.
(§9) h. Record fluorescence at an excitation wavelength of 544 nm and emission wavelength of 590 nm using a microplate reader.
(§10) In the assays, cells are cultured with a test compound for approximately four days, the dye is then added to the cells and fluorescence of […] dye is detected after approximately four hours. Different types of cells can be utilized in the assays (e.g., HCT-116 human colorectal carcinoma cells, PC-3 human prostatic cancer cells, MDA-MB231 human breast cancer cells, K-562 human chronic myelogenous leukemia (CML) cells, MiaPaca human pancreatic carcinoma cells, MV-4 human acute myeloid leukemia cells, and BxPC3 human pancreatic adenocarcinoma cells).

[2] = molecular target: recombinant PIM-1 (Homo sapiens, UniProt P11309); test: PIM-1 kinase assay; assay type: biochemical; details: for inhibition at 0.5 µM: 500 nM compound, read-out: PIM1: % inh 500 nM
Procedure: The following procedure was used to assay the PIM-1 kinase activity of compounds of the invention. Other methods for assaying PIM-1 and other PIM kinases, as well as methods to assay for activity against various kinases known in the art.
In a final reaction volume of 50 ul, recombinant PIM-1 (1 ng) was incubated with 12 mM MOPS pH 7.0, 0.4 mM EDTA, glycerol 1%, brij 35 0.002%, 2-mercaptoethanol 0.02%, BSA 0.2 mg/ml, 100 uM KKRNRTLTK, 10 mM MgAcetate, 15 uM ATP, [γ-^33P-ATP] (specific activity approx. 500 cpm/pmol), DMSO 4% and test inhibitor compound at the required concentration. The reaction was initiated by the addition of the Magnesium ATP mixture. After 40 min incubation at 23° C., the reactions were quenched by the addition of 100 ul 0.75% Phosphoric acid, and the labeled peptide collected by filtration through a phosphocellulose filter plate. The plate was washed 4 times with 0.075% phosphoric acid (100 ul per well) and then, after the addition of scintillation fluid (20 ul per well), the counts were measured by a scintillation counter.

[3] = test system: PC-3 human prostatic cancer cells; test: Alamar Blue cell proliferation assay, PC3; assay type: cell-based
Procedure: as §1, §2, §3, §4, §5, §6, §7, §8, §9, §10

[4] = test system: MV-4-11; test: Alamar Blue cell proliferation assay, MV-4-11; assay type: cell-based; details: Homo sapiens, MV4-11
Procedure: as §1, §2, §3, §4, §5, §6, §7, §8, §9, §10

[5] = test system: K-562 human chronic myelogenous leukemia (CML) cells; test: Alamar Blue cell proliferation assay, K-562; assay type: cell-based
Procedure: as §1, §2, §3, §4, §5, §6, §7, §8, §9, §10

[6] = test system: SUM-149PT; test: Alamar Blue cell proliferation assay, SUM-149PT; assay type: cell-based; details: Homo sapiens, SUM149PT
Procedure: as §1, §2, §3, §4, §5, §6, §7, §8, §9, §10

[7] = test system: MDA-MB45; test: Alamar Blue cell proliferation assay, MDA-MB45; assay type: cell-based
Procedure: as §1, §2, §3, §4, §5, §6, §7, §8, §9, §10

[8] = test system: BxPC3 human pancreatic adenocarcinoma cells; test: Alamar Blue cell proliferation assay, BxPC3; assay type: cell-based; details: BXPC-3
Procedure: as §1, §2, §3, §4, §5, §6, §7, §8, §9, §10

[9] = molecular target: recombinant human PIM2 (Homo sapiens, UniProt Q9P1W9); test: PIM-2 kinase assay; assay type: biochemical
Procedure: Test compounds dissolved and diluted in DMSO (2 μl) were added to a reaction mixture comprising 10 μl of 5× Reaction Buffer (40 mM MOPS pH 7.0, 5 mM EDTA), 10 μl of recombinant human PIM2 solution (4 ng PIM-2 dissolved in dilution buffer (20 mM MOPS pH 7.0; EDTA 1 mM; 5% Glycerol; 0.01% Brij 35; […]; […] 2-mercaptoethanol; 1 mg/ml BSA)) and 8 ul of water. Reactions were initiated by the addition of 10 ul of ATP Solution ([…] (15 mM MgCl2; 75 uM ATP) 1% ([γ-33P]ATP: Stock 1 mCi/100 μl; 3000 Ci/mmol (Perkin Elmer)) and 10 ul of substrate peptide solution (RSRSSYPAGT, dissolved in water at a concentration of 1 mM), Reactions were maintained for 10 min at 30° C. The reactions were quenched with 100 ul of 0.75% Phosphoric acid, then transferred to and filtered through a Phosphocellulose filter plate (Millipore, MSPH-N6B-50). After washing each well 4 times with 0.75% Phosphoric acid, scintillation fluid (20 uL) was added to each well and the residual radioactivity was measured using a Wallac luminescence counter.

[10] = molecular target: T1, recombinant human CK2 (Homo sapiens, UniProt P68400); test: cell-free CK2 assay; assay type: biochemical
T1 construct: purchased Upstate
Procedure: Modulatory activity of compounds described herein was assessed in vitro in cell-free CK2 assays by the following method.
Test compounds in aqueous solution were added at a volume of 10 microliters, to a reaction mixture comprising 10 microliters Assay Dilution Buffer (ADB; 20 mM MOPS, pH 7.2, 25 mM beta-glycerolphosphate, 5 mM EGTA, 1 mM sodium orthovanadate and 1 mM dithiothreitol), 10 microliters of substrate peptide (RRRDDDSDDD, dissolved in ADB at a concentration of 1 mM), 10 microliters of recombinant human CK2 (25 ng dissolved in ADB; Upstate). Reactions were initiated by the addition of 10 microliters of ATP Solution (90% 75 mM MgCl2, 75 micromolar ATP dissolved in ADB; 10% [γ-^33P]ATP (stock 1 mCi/100 μl; 3000 Ci/mmol (Perkin Elmer) and maintained for 10 minutes at 30 degrees C. The reactions were quenched with 100 microliters of 0.75% phosphoric acid, then transferred to and filtered through a phosphocellulose filter plate (Millipore). After washing each well 5 times with 0.75% phosphoric acid, the plate was dried under vacuum for 5 min and, following the addition of 15 ul of scintilation fluid to each well, the residual radioactivity was measured using a Wallac luminescence counter.

[11] = 15 μM ATP, read-out: PIM1: IC50 (15 μM ATP)

T1 sequence (P68400 whole entry): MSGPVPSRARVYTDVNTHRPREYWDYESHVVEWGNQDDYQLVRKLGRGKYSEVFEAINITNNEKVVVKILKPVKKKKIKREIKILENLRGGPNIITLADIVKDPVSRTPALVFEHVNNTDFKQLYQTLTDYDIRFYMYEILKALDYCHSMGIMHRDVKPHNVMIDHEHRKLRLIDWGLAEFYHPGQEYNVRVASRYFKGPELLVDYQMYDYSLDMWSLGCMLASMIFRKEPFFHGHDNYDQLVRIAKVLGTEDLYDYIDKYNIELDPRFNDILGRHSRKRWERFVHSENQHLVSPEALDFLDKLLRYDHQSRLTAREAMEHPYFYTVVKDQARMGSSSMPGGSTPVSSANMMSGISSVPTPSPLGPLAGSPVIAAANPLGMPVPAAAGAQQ
T1 sequence (P67870 whole entry partner): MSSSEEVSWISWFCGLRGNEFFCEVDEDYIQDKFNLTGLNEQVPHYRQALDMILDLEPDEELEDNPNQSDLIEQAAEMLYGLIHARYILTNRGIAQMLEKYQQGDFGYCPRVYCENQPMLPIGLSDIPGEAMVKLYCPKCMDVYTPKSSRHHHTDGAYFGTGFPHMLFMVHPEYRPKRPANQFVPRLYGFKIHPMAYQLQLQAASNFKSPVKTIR
recombinant PIM-1, sequence (P11309 whole entry): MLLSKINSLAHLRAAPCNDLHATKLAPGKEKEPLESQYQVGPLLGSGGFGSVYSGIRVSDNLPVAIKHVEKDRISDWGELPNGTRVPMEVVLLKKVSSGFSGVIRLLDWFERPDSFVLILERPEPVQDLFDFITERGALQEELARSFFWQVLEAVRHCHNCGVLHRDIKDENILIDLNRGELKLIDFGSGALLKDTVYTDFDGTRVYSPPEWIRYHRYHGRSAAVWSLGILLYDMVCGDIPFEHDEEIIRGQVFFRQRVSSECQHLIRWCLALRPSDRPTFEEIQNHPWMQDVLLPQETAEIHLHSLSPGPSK
recombinant human PIM2, sequence (Q9P1W9 whole entry): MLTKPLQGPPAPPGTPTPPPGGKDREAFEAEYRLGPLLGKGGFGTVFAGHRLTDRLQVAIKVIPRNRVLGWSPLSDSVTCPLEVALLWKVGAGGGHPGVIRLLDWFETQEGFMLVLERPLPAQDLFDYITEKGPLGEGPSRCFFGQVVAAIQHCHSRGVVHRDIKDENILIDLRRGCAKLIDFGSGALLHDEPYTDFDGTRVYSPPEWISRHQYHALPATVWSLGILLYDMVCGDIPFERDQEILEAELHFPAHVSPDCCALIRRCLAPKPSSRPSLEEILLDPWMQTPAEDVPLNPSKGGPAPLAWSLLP

Row | Compound | IC50 [1] [µM] | inhibition at 0.5 µM [2] [%] | IC50 [3] [µM] | IC50 ([4]; Table 4) [µM] | IC50 ([5]; K562, Table 4) [µM] | IC50 [2, 11] [µM] | IC50 ([2]; Table 5, read-out: PIM1 IC50) [µM] | IC50 [6] [µM] | IC50 [7] [µM] | IC50 [8] [µM] | IC50 [9] [µM] | IC50 ([4]; Table 5) [µM] | IC50 [10] [µM] | IC50 ([5]; K562, Table 5) [µM]
1 | N#Cc1ccc2c(c1)nc(NCCN1CCCC1)c1cccn12 | 1.24 | 10.3 | 9.65 | 3 | 5.52 | – | – | – | – | – | – | – | – | –
2 | Fc1cc(F)cc(Nc2nc3cc(-c4nnn[nH]4)ccc3n3cccc23)c1 | > 10 | 63.8 | > 10 | 7.77 | > 10 | 0.514 | – | – | – | – | – | – | – | –
3 | CN(c1cccc(Cl)c1)c1nc2cc(-c3nnn[nH]3)ccc2n2cccc12 | > 10 | 6.59 | > 10 | > 10 | > 10 | – | – | – | – | – | – | – | – | –
4 | N#Cc1cccc(Nc2nc3cc(C(=O)O)ccc3n3cccc23)c1 | > 10 | 92.3 | > 10 | > 10 | > 10 | 0.115 | – | – | – | – | – | – | – | –
5 | FC(F)(F)c1cccc(Nc2nc3cc(-c4nnn[nH]4)ccc3n3cccc23)c1 | > 10 | 45.2 | > 10 | 6.58 | > 10 | – | – | – | – | – | – | – | – | –
6 | CN(c1cccc(Cl)c1)c1nc2cc(C(=O)O)ccc2n2cccc12 | > 10 | 49.7 | > 10 | > 10 | > 10 | – | – | – | – | – | – | – | – | –
7 | c1ccc(Nc2nc3c(-c4nnc[nH]4)cccc3n3cccc23)cc1 | – | – | – | – | – | – | < 0.1 | > 30 | 15.1 | > 30 | < 0.1 | < 5 | < 0.1 | > 30
8 | CN(c1ccccc1)c1nc2cc(-c3nnn[nH]3)ccc2n2cccc12 | > 10 | 15.3 | > 10 | > 10 | > 10 | – | – | – | – | – | – | – | – | –
9 | O=C(O)c1ccc2c(c1)nc(Nc1cc(F)cc(Cl)c1)c1cccn12 | > 10 | 83.9 | > 10 | 8.55 | > 10 | 0.119 | – | – | – | – | – | – | – | –
10 | O=C(NC1CC1)c1cccc2c1nc(Nc1ccccc1F)c1cccn12 | – | – | – | – | – | – | < 0.1 | < 10 | 12 | > 30 | < 1 | < 10 | < 1 | > 10
11 | Clc1cccc(-c2nc3cc(-c4nnn[nH]4)ccc3n3cccc23)c1 | > 10 | 25 | > 10 | > 10 | > 10 | – | – | – | – | – | – | – | – | –
12 | Cc1ccccc1Nc1nc2cc(C(=O)O)ccc2n2cccc12 | > 10 | 43.8 | > 10 | > 10 | > 10 | – | – | – | – | – | – | – | – | –
13 | Clc1ccccc1Nc1nc2cc(-c3nnn[nH]3)ccc2n2cccc12 | > 10 | 59.3 | > 10 | > 10 | > 10 | 0.466 | – | – | – | – | – | – | – | –
14 | CN(c1ccccc1F)c1nc2cc(-c3nnn[nH]3)ccc2n2cccc12 | > 10 | 51.4 | > 10 | > 10 | > 10 | 0.774 | – | – | – | – | – | – | – | –
15 | O=C(O)c1ccc2c(c1)nc(Nc1cccc(Cl)c1)c1cccn12 | 8.92 | 95.4 | > 10 | 2.93 | > 10 | 0.095 | – | – | – | – | – | – | – | –
16 | Clc1cccc(Nc2nc3cc(-c4nnn[nH]4)ccc3n3cccc23)c1 | 9.37 | 77.4 | > 10 | 4.98 | > 10 | 0.15 | – | – | – | – | – | – | – | –
17 | Fc1ccccc1Nc1nc2c(-c3nnc[nH]3)cccc2n2cncc12 | – | – | – | – | – | – | – | < 10 | < 5 | 15.1 | < 0.1 | < 1 | < 0.1 | < 10
18 | O=C(O)c1ccc2c(c1)nc(NCCn1cccc1)c1cccn12 | > 10 | 50.1 | > 10 | > 10 | > 10 | 0.554 | – | – | – | – | – | – | – | –
19 | O=C(O)c1ccc2c(c1)nc(Nc1cccc(F)c1)c1cccn12 | > 10 | 78.1 | > 10 | > 10 | > 10 | 0.156 | – | – | – | – | – | – | – | –
